According to patent US20250332154A1, “USE OF NAPHTHOQUINE PHOSPHATE IN PREPARATION OF A MEDICAMENT FOR TREATING AUTOIMMUNE DISEASES” (SHANGHAI PHARMACEUTICALS INDUSTRY CO., LTD, priority 2022, published 2025):
Where a name gives a salt, the structure may show the parent alone. Read-outs that look alike come from different tables or passages of the source.

Legend:
[1] = tested on: IL-10; experiment: IL-10 secretion by TLRs-L-stimulated mouse whole spleen lymphocytes (ELISA); format: cell-based; conditions: Lymphocyte, 48 h
Method: (§1) BALB/c mice were sacrificed by cervical dislocation, and spleens were aseptically excised to prepare whole spleen lymphocytes. The cells were adjusted to 5×10^6 cells/ml. Hydroxychloroquine sulfate was diluted with a 3-fold gradient into 3 concentrations starting from 30 μM: 30, 10 and 3 μM; naphthoquine phosphate was diluted with a 3-fold gradient into 3 concentrations starting from 10 μM: 10, 3 and 1 μM.
(§2) Mouse spleen lymphocytes were inoculated into a 96-well plate at 100 μl/well, and the stimulant TLR4-L (final concentration: 10 μg/ml), TLR7-L (final concentration: 5 μg/ml) or TLR9-L (final concentration: 1 μM) and the compounds diluted with the above concentration gradients were added. A corresponding stimulation control and a cell control (without stimulation) were set up. The cells were cultured in a 37° C., 5% CO2 incubator for 48 hours. After the end of the culture, the cell culture supernatants were collected, and the levels of IL-1β, IL-6, and IL-10 were measured by ELISA.

[2] = tested on: TNF-α; experiment: TNF-α production by LPS-induced RAW264.7 cells (ELISA); format: cell-based, mouse; conditions: for production of TNF-α: LPS-induced RAW264.7, in words; for IC50: Mus musculus, LPS 10 μg/ml, RAW264.7
Method: RAW264.7 cells were inoculated into a 96-well plate at 1×10^5/well and allowed to adhere to the wall for 6 hours in a 37° C., 5% CO2 incubator. […] After the cells adhered to the wall, the stimulant LPS (final concentration: 10 μg/ml) and the gradient-diluted compounds were added. A corresponding stimulation control and a cell control (without stimulation) were set up. After the end of the culture, the cell culture supernatants were collected, and the levels of TNF-α, IL-1β and IL-6 were measured by ELISA.

[3] = Non-specific cytotoxicity assay (MTT), mouse spleen lymphocytes; format: cell-based; conditions: BALB/c, mouse, mouse whole spleen lymphocytes
Method: BALB/c mice were sacrificed by cervical dislocation, and spleens were aseptically excised to prepare whole spleen lymphocytes. The cells were adjusted to the required concentration. The compound concentrations started at 250 μM and was diluted with a 4-fold gradient to obtain 10 concentrations: 250, 62.5, 15.625, 3.906, 0.977, 0.244, 0.061, 0.015, 0.004 and 0.001 μM.
A suspension of mouse spleen lymphocytes was inoculated into a 96-well plate at 8×10^5/well, and the above 10 concentration gradients of the compound were added. A corresponding cell control (i.e. spleen lymphocyte culture system without compound) and a RPMI 1640 culture medium background control (blank culture medium control) were set up. The cells were cultured in a 37° C., 5% CO2 incubator for 48 hours. Four hours before the end of the culture, 20 μl of 5 mg/ml MTT solution was added, and the reaction continued until the end of the culture (i.e. the aforementioned 48 hours). The supernatant was aspirated and discarded, 200 μl DMSO was added to each well to dissolve the crystals. […]. The absorbance value was measured at […] with a microplate reader (Spectra Max 190, Molecular Devices).

[4] = tested on: mouse whole spleen lymphocytes (ConA-induced T cell activation and proliferation); experiment: ConA-induced lymphocyte proliferation assay (3H-thymidine); format: cell-based; conditions: for IC50: ConA 1 μg/ml, 48 hours, 3H-thymidine, read-out: ConA IC50
Method: BALB/c mice were sacrificed by cervical dislocation, and spleens were aseptically excised to prepare whole spleen lymphocytes. The cells were adjusted to the required concentration.
A suspension of mouse spleen lymphocytes was inoculated into a 96-well plate at 5×10^5/well, and ConA (final concentration: 1 μg/ml) or LPS (final concentration: 10 μg/ml) and the above 10 concentration gradients of the compound were added. Corresponding cell control wells without ConA and LPS, as well as medicament-free stimulated control wells, were set up. The cells were cultured in a 37° C., 5% CO2 incubator for 48 hours. Eight hours before the end of the culture, ^3H-thymidine was added, and the culture continued until the end of the experiment (i.e., the aforementioned 48 hours). The cells were collected onto glass fiber membranes using a cell collector.
ConA and LPS, as mitogens, stimulated proliferation and differentiation of T and B lymphocytes, respectively. This process is similar to the activation process of lymphocytes in vivo. Therefore, mitogen-induced lymphocyte proliferation is commonly used as an indicator to evaluate functionality of lymphocytes.

[5] = tested on: IgG; experiment: IgG secretion by TLRs-L-stimulated purified mouse B cells (ELISA); format: cell-based; conditions: B-cell, 120 h, stimulant TLR4-L 10 μg/ml
Method: BALB/c mice were sacrificed by cervical dislocation, and spleens were aseptically excised to prepare spleen lymphocytes. The cells were adjusted to 1×10^8 cells/ml, blocked with 2.4G2 (final concentration: 10 μg/ml) for 20 min, cultured with PE-CD19 (final concentration: 5 μg/ml) for 20 min, washed with MACS buffer, centrifuged at 4° C., 300G for 10 min, 100 μl anti-PE beads were added per 1×10^8 cells, incubated with 900 μl MACS buffer for 15 min, washed with MACS buffer, centrifuged at 4° C., 300G for 10 min. The supernatant was discarded. 500 μl MACS buffer was added per 1×10^8 cells to resuspend the cells. MACS column was used for separation. Magnetically labeled cells were retained on the column. The MACS column was removed from the magnetic field and then eluted.
A suspension of purified mouse B cells was inoculated into a 96-well plate at 4×10^5/well. Hydroxychloroquine sulfate was diluted with a 2-fold gradient into 3 concentrations, starting from 8 μM: 8, 4 and 2 μM. Naphthoquine phosphate was diluted with a 2-fold gradient into 3 concentrations starting from 0.5 μM.: 0.5, 0.25 and 0.125 μM. […] After the end of the culture, the cell culture supernatants were collected, and the levels of IgG and IgM were measured by ELISA.

[6] = tested on: IgM; experiment: IgM secretion by TLRs-L-stimulated mouse whole spleen lymphocytes (ELISA); format: cell-based; conditions: Lymphocyte, 120 h
Method: as §1
as §2, with “120” for “48”, “IgG” for “IL-1β, IL-6,”, “IgM” for “IL-10”

IC50 ([1]; stimulant TLR4-L 10 μg/ml) [nM]	IC50 ([1]; stimulant TLR7-L 5 μg/ml) [nM]	IC50 ([1]; stimulant TLR9-L 1 μM) [nM]	IC50 [2] [nM]	IC50 [5] [nM]	IC50 ([6]; stimulant TLR4-L 10 μg/ml) [nM]	IC50 ([6]; stimulant TLR7-L 5 μg/ml) [nM]	IC50 ([6]; stimulant TLR9-L 1 μM) [nM]	Structure (SMILES)	production of TNF-α [2]	CC50 at 48 h [3] [nM]	IC50 ([4]; listed as Hydroxychloroquine Sulfate (Zhongxi Sunve)) [nM]	IC50 ([4]; Mus musculus, Lymphocyte) [nM]	effect on ConA-induced T cell activation and proliferation ([4]; in words)
3190	1110	3300	46300	> 8000	25300	19200	2510	CCN(CCO)CCCC(C)Nc1ccnc2cc(Cl)ccc12 (centres unmarked) [Hydroxychloroquine Sulfate, hydroxychloroquine sulfate]	no significant effect	25200	17000	17100	
106	39	190	> 10000	410	845		2030	CC(C)(C)NCc1cc(Nc2ccnc3cc(Cl)ccc23)c2c(c1O)CCCC2.O=P(O)(O)O.O=P(O)(O)O [Naphthoquine Phosphate, Naphthoquine phosphate]	no significant effect	1450		410	significant inhibitory activity
